Experimental data reported in patent US5246966A, “Substituted alkenoic acid and its derivatives” (Bayer Aktiengesellschaft, priority 1991, dated 1993).

Molecular target: T1, LTD4 receptor ([3H-LTD4] binding to guinea-pig lung membranes) (Cavia porcellus, UniProt Q2NNR5)
T1 construct: guinea-pig lung membranes; from tissue; host or cells: guinea-pig lung membranes
T1 sequence (Q2NNR5 1-340): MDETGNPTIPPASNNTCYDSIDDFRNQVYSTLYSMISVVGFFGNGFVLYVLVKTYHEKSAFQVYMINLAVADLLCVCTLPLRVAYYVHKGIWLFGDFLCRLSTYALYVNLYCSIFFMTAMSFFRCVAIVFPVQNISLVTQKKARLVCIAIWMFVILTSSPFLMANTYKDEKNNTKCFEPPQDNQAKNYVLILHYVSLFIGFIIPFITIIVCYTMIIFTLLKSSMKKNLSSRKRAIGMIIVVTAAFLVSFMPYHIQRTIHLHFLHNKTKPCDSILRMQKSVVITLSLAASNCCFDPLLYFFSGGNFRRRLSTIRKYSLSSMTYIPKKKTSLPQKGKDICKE
Experiment: [3H]-LTD4 binding assay
Settings: displacement of 0.8 nM 3H-LTD4 from guinea-pig lung membranes, 15 minutes at 20° C., pH 7.4; Cheng and Prusoff correction of IC50; read-out: pKi [3H-LTD4] (converted)
Experimental: To evaluate the pharmacological properties the receptor affinity of the compounds were determined by measuring its ability to displace [^3 H-LTD4 ] binding to guinea-pig lung membranes.
Test method: [^3 H]-LTD4 BINDING ASSAY
Increasing concentrations (between 10^-8 and 10^-5 M) of compounds of general formula I were incubated with 0.8 nM^3 H-LTD4 and guinea-pig lung membranes (100-150 μg protein) for 15 minutes at 20° C. in an assay buffer of 10 mM L-cysteine and 1% polypep in 50 mM Tris HCl at pH 7.4. Incubations (total volume 0.25 ml) were terminated by addition of ice-cold Tris HCl (pH 7.4) and rapidly filtered through Whatman GF/C filters which were washed twice with ice-cold buffer. All points were determined in triplicate.
The counts (dpm) bound to each filter were determined by liquid scintillation spectrometry. The amount bound in the presence of each concentration of test compound was compared to the amount of binding in the absence of test compound […] and to the amount bound in the presence of 2 μm LTD4. […]
Where 0.8 nM is the dissociation constant for ^3 H-LTD4 under these conditions and [^3 H-LTD4 ] is the precise concentration (in nM) employed in the assay (also determined by liquid scintillation counting).

SMILES: O=C(O)CC[C@@H](/C=C\Cc1ccc(OCCCCOc2ccccc2)cc1)Sc1ccc(C(=O)O)cc1 [Example No. 4, Z-[4S]-4-(4-Carboxyphenylthio)-7-[4-(4-phenoxybutoxy)-phenyl]-5-heptenoic acid]
- Ki: 31.6 nM
